Test results as given in patent US9546196B2, “Compositions and methods of treatment of cancers” (The University of Toledo, priority 2009, dated 2017).
Ends that are not written are not given here. Peptide text beside a SMILES is read from it. * marks the point of attachment. Cbz = O=C(OCc1ccccc1)*; CH2F = FC*

The molecules below were run on sGCα1 (assay: Western blotting of sGCα1 expression in VCaP cells). Details: 1 nM R1881.
Assay type: cell-based
Procedure: FIG. 11A: VCaP cells were treated with or without 1 nM R1881 and Western blotting was used to measure expression of sGCα1. β-actin was used as a loading control.
For C[C@]1(O)CC[C@H]2[C@@H]3CCC4=CC(=O)CCC4=C3C=C[C@@]21C [Peptide R1881, R1881], the sGCα1 protein expression was “significantly induced”.

The molecules below were run against sGC (Homo sapiens, UniProt Q02153) (assay: sGC-catalyzed cGMP synthesis (data not shown)). Details: the two ODQ concentrations.
sGC, sequence (Q02108 whole entry partner): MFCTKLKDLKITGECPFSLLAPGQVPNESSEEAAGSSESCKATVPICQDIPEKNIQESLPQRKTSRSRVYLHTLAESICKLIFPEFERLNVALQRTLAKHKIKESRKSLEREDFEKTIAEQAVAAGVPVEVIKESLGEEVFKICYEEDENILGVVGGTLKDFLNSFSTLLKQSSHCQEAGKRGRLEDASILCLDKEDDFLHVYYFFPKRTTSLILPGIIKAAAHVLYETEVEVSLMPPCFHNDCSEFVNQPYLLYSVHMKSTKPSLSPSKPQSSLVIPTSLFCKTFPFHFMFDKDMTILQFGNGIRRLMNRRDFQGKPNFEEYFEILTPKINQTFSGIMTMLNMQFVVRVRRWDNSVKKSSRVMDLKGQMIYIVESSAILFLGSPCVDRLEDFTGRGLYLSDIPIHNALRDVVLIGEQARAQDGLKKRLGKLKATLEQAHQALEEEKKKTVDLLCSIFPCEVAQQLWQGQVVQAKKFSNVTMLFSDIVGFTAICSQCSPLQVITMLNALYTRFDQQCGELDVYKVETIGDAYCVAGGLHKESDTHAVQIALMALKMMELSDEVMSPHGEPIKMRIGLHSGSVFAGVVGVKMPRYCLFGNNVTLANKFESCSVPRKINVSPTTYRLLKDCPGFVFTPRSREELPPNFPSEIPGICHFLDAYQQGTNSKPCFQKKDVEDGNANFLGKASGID
sGC, sequence (Q02153 whole entry): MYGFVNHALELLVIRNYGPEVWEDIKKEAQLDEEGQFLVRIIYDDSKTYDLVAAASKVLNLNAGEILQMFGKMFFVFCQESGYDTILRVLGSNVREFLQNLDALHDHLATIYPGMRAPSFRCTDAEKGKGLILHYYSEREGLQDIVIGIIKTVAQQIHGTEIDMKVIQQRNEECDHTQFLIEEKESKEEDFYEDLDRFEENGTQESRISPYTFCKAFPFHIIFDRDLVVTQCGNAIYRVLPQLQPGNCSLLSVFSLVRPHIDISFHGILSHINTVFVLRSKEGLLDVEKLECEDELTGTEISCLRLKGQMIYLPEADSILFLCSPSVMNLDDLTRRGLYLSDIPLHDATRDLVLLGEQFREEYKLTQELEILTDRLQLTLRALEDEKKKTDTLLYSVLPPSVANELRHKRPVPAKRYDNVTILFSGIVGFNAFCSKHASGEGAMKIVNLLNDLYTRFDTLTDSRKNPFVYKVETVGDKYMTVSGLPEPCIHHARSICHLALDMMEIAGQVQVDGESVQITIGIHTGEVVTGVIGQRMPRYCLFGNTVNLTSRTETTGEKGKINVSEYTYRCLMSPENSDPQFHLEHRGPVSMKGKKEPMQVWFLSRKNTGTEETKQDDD
Assay type: biochemical
Source text: (§1) To determine whether nitric oxide (NO) signaling is involved in sGCα1-mediated repression of p53 transcriptional activity, NO interfering drugs were used.
O=c1onc2cnc3ccccc3n12 [ODQ] was tested, and the “sGC-catalyzed cGMP synthesis” value was “strongly inhibited”.

The molecules below were run on LNCaP cells (assay: not given). Details: increasing concentration of peptide, days; with or without 1 nM R1881.
Assay type: cell-based
Procedure: FIG. 12B: LNCaP cells were grown without androgen for 2 or 4 days in the presence of increasing concentration of Peptide A-8R [SEQ ID NO: 1] (upper left), Peptide B-8R [SEQ ID NO: 2] (upper right), Peptide C-8R [SEQ ID NO: 3] (lower left), or Peptide D-8R [SEQ ID NO: 4] (lower right). The MTT reagent was used to measure cell density.
FIG. 13A: LNCaP cells were grown with (Right) or without (Left) 1 nM androgen ([…]) for 3 or 6 days in the presence of increasing concentration of Peptide A-8R [SEQ ID NO: 1] or vehicle (70% DMSO). The MTT reagent was used to measure cell density.
FIG. 13B: LNCaP cells were grown with (Right) or without (Left) 1 nM androgen (R1881) for 3 or 6 days in the presence of increasing concentration of Peptide C-8R [SEQ ID NO: 3] or vehicle and then cell density was measured.
FIG. 14A: LNCaP cells were grown with (Right) or without (Left) 1 nM R1881 for 3 or 6 days in the presence of increasing concentration of Peptide A or vehicle and then cell density was measured.
FIG. 14B: LNCaP cells were grown with (Right) or without (Left) 1 nM R1881 for 3 or 6 days in the presence of increasing concentration of Peptide A-8R [SEQ ID NO: 1] or vehicle and then cell density was measured.
FIG. 15A: LNCaP cells were grown for 1-8 hrs in the presence of 10 μM Peptide A-8R [SEQ ID NO: 1] or vehicle and then cell density was measured.
FIG. 19C: LNCaP cells were grown with for 12 or 48 hrs in the presence of increasing concentration of Peptide A-8R [SEQ ID NO: 1] (Left) or PeptideA-8R-Biotin [SEQ ID NO: 1] (Right) and then cell density was measured.
Each peptide contained 8 arginines at the C-terminus, a sequence which is known to mediate plasma membrane translocation and cellular internalization.
To measure how rapid the cytotoxic effect of Peptide A-8R [SEQ ID NO: 1] occurs, LNCaP cells were treated with 10 μM peptide and incubated for 1-8 hrs. […] Using the same conditions, C81 cells were used to study the peptide effect on hormone-refractory prostate cancer cells.
In the case of Ac-LRLKGQMIYLRRRRRRRR-OH [Peptide B-8R], the “effect on LNCaP cell growth / cytotoxicity (in words)” value is reported as “stopped the growth”. In the case of Ac-PLHDATRDLVRRRRRRRR-OH [Peptide C-8R], the “effect on LNCaP cell growth / cytotoxicity (in words)” value is reported as “no effect”. In the case of Ac-TFCKAFPFHII [Peptide A], the “effect on LNCaP cell growth / cytotoxicity (in words)” value is reported as “no effect”.

These molecules were tested on LNCaP cells (assay: LNCaP cell viability with etoposide, MTT assay). Details: 10 μM etoposide, two days.
Assay type: cell-based
Procedure: FIG. 7B: Over-expression of sGCα1 protects prostate cancer cells from the lethal effects of etoposide. LNCaP cells were infected with control empty adenovirus (−sGCα1; 20 MOI) or sGCα1-expressing adenovirus (+sGCα1; 2 or 20 MOI) and treated with 10 μM etoposide. After two days of incubation, cell number was quantified by MTT assay. Bar graphs represent averages of three independent experiments plus standard deviations. All activities are relative to the first condition, and this activity was set to 100%.
LNCaP cells were infected with an sGCα1-expressing adenovirus and treated with etoposide, an inducer of apoptosis. […] This finding, together, with the PCR array data showing that sGCα1 can regulate Survivin expression, is consistent with results showing that Survivin desensitizes prostate cancer cells to etoposide.
With COc1cc([C@@H]2c3cc4c(cc3[C@@H](O[C@@H]3O[C@@H]5CO[C@@H](C)O[C@H]5[C@H](O)[C@H]3O)[C@H]3COC(=O)[C@H]23)OCO4)cc(OC)c1O [Etoposide] the “viability of LNCaP cells” value was “significantly reduced”.

What follows are molecules tested on LNCaP cells (assay: Relief of Peptide A-8R cytotoxicity by pan-caspase inhibitor in LNCaP cells). Details: 40 mM Z-VAD-FMK, 4 hrs.
Assay type: cell-based
Procedure: FIG. 18B: LNCaP cells were grown for 4 hrs in the presence of increasing concentration of Peptide A-8R [SEQ ID NO: 1] with or without […] Z-VAD-FMK and then cell density was measured.
To determine if the cytotoxicity of Peptide A-8R [SEQ ID NO: 1] is through apoptosis, LNCaP cells were monitored for Caspase 3/7 activity. […] Thus, Peptide A-8R [SEQ ID NO: 1] was able to induce Caspase 3/7 activity much faster than the well-studied apoptosis-inducing drug Etoposide. To confirm that the Peptide was killing cells via apoptosis, the inventors used the pan-caspase inhibitor Z-VAD-FMK.
With COC(=O)C[C@H](NC(=O)[C@H](C)NC(=O)[C@@H](NC(=O)OCc1ccccc1)C(C)C)C(=O)CF [Z-VAD-FMK] (Cbz-Val-Ala-Asp(OMe)-CH2F) the “effect on Vehicle-treated cells” value was “no significant effect”.

Same assay, conditions: pretreatment with 40 mM Z-VAD-FMK, peptide up to 50 μM, 4 hrs
In the case of COC(=O)C[C@H](NC(=O)[C@H](C)NC(=O)[C@@H](NC(=O)OCc1ccccc1)C(C)C)C(=O)CF [Z-VAD-FMK] (Cbz-Val-Ala-Asp(OMe)-CH2F), the “relief of the Peptide A-8R cytotoxic effect” value is reported as “complete relief”.

The molecules below were run on MDM2 (assay: Western blotting of MDM2 in LNCaP nuclear and cytosolic extracts). Details: LNCaP cells.
Assay type: cell-based
Procedure: FIG. 4B: Nuclear (N) and cytosolic (C) extracts were prepared from LNCaP cells and Western blotting was used to measure protein levels of MDM2, p53, JAB1, and sGCα1. β-actin was used as loading control.
LNCaP cells were infected with an sGCα1-expressing adenovirus or control empty virus and p53 subcellular localization was measured by Western blotting following cell fractionation.
For CC(C)C[C@@H](C=O)NC(=O)[C@H](CC(C)C)NC(=O)[C@H](CC(C)C)NC(=O)OCc1ccccc1 [MG132] (Cbz-Leu-Leu-Leu-aldehyde), the MDM2 cytoplasmic levels was “significantly enhanced”.

What follows are molecules tested on p53 transcriptional activity (assay: p53-Luc reporter assay, sGCα1-mediated repression of p53 transcriptional activity in LNCaP cells). Details: 100 nM of drug.
Assay type: cell-based
Source text: FIGS. 1A-1F: Over-expression of sGCα1 inhibits p53 transcriptional activity. p53 activity was quantified by measuring luciferase activity. Bar graphs represent the average of three independent experiments plus standard deviation. All cells received the same amount of transfected expression plasmid and that pCH110 was used to control transfection efficiency.
FIGS. 2A-2F: The sGCα1-mediated repression of p53 transcriptional activity is independent of mediators of NO signaling and guanylyl cyclase activity. Androgen-dependent LNCaP cells were transfected with 0.5 μg pCH110, 0.1 μg p53-Luc reporter plasmid, and subjected to different treatments:
FIG. 2A: Cells were transfected with 0.5 μg pCH110, 0.1 μg p53-Luc reporter plasmid, and subjected to […] ODQ.
FIG. 2C: Cells were treated with different concentrations of C-PTIO.
FIG. 2D: Cells were treated with different concentrations of SNP.
FIG. 2E: Cells were treated with different concentrations of 8-Br-cGMP.
as §1
Supporting this finding, the NO donor SNP had no effect (FIG. 2D).
With CC1(C)N([O])C(c2ccc(C(=O)O)cc2)=[N+]([O-])C1(C)C [C-PTIO] the p53 activity was “inhibit p53 activity”.

Same assay, conditions: 5 or 50 mM ODQ
For O=c1onc2cnc3ccccc3n12 [ODQ], the “effect on sGCα1-mediated repression of p53” value was “no effect”.

Same assay, conditions: different concentrations
With Nc1nc2c(nc(Br)n2[C@@H]2O[C@@H]3COP(=O)(O)O[C@H]3[C@H]2O)c(=O)[nH]1 [Peptide 8-Br-cGMP, 8-Br-cGMP] the p53 transcriptional activity was “weakly enhanced”.

What follows are molecules tested on LNCaP cell culture (assay: not given). Details: not given.
Assay type: cell-based
Source text: In one non-limiting example, Peptide A-8R [SEQ ID NO: 1] can be truncated to a smaller peptide that retains the same type of biological activity profile. In certain embodiments, truncating Peptide A-8R [SEQ ID NO: 1] results in greater potency upon conversion of some of the pharmacophore functionalities to peptidomimetic groups that can, in turn, enhance key interactions by lowering the net binding energy. In one experiment, Peptide A-8R [SEQ ID NO: 1] was divided into two parts, using the central proline residue as the division point. […] A minimum number of amino acids desired for cytotoxicity was then identified. […] The following Peptide A truncated and derivative probes were synthesized and evaluated for their effect on cytotoxicity after 3- and 6-day exposures:
The following table lists cell culture data for truncated Peptide A peptides. The amino acid sequences and IC50 values in μM concentrations depict cytotoxicity after 3- and 6-day exposures (“NotA” means not active). “8R” [SEQ ID NO: 6] signifies that 8 arginines are present on the carboxy terminus to mediate membrane translocation. The data has shown that the 8R terminus [SEQ ID NO: 6] can be either as the free carboxy (—OH) or amide (—NH2) with no alteration of permeation or observed activity.
The table below lists LNCaP cell culture data for various Peptide A derivatives, displaying the observed IC50 values in μM concentrations after 3- and 6-day exposures.
For C[C@H](NC(=O)[C@H](CCCCN)NC(=O)[C@H](CS)NC(=O)[C@@H](N)Cc1ccccc1)C(=O)O [FA4, FCKA] (H-FCKA-OH), the “cytotoxicity / activity in cells (in words)” value (shortened to “cytotoxicity / activity”) was “diminished but yet still significant cytotoxicity”. In the case of C[C@@H](O)[C@H](N)C(=O)N[C@@H](Cc1ccccc1)C(=O)N[C@@H](CS)C(=O)O [TC3, TFC] (H-Thr-Phe-Cys-OH), the “cytotoxicity / activity” value is reported as “diminished but yet still significant cytotoxicity”. In the case of ACKAFRRRRRRRR-NH2 [AF5-8R], the Cytotoxicity is reported as “Yes”. With CKAFRRRRRRRR-NH2 [Peptide CF4-8R] the Cytotoxicity was “Yes” and the “cytotoxicity / activity” value was “lower-level activities retained”. With FAKAFRRRRRRRR-NH2 [Peptide FF5-C2A-8R] the Cytotoxicity was “Yes” and the “cytotoxicity / activity” value was “dramatically reduced activity”. FCAAFRRRRRRRR-NH2 [FF5-K3M-8R] was tested, and the Cytotoxicity was “Yes”. FCKAARRRRRRRR-NH2 [FA5-8R] was tested, and the Cytotoxicity was “Yes”. For FCKAF [FF5-OH, FCKAF], the Cytotoxicity was “No”. With FCKAF [FF5] the “cytotoxicity / activity” value was “inactive”. FCKAF-NH2 [FF5-NH2, FCKAF] was tested, and the Cytotoxicity was “No”. With FCKAFPRRRRRRRR-NH2 [Peptide FP6-8R] the Cytotoxicity was “Yes”. In the case of FCKAFRRRRRRRR-NH2 [Peptide FF5-8R], the Cytotoxicity is reported as “Yes”. For FCKARRRRRRRR [Peptide FA4-8R], the Cytotoxicity was “Yes” and the “cytotoxicity / activity” value was “lower-level activities retained”. FMKAFRRRRRRRR-NH2 [Peptide FF5-C2M-8R] was tested, and the Cytotoxicity was “Yes” and the “cytotoxicity / activity” value was “significant activity was retained”. KAFPFHRRRRRRRR [Peptide KH6-8R] was tested, and the Cytotoxicity was “No”. In the case of KAFPRRRRRRRR [Peptide KP4-8R], the Cytotoxicity is reported as “No”. With PFHII [PI5, PFHII] the “cytotoxicity / activity” value was “no activity”. In the case of PFHIIRRRRRRRR-NH2 [Peptide PI5-8R], the Cytotoxicity is reported as “No”. With TFCKAFP [TP7, TFCKAFP] the “cytotoxicity / activity” value was “retained cytotoxicity”. For TFCKAFPRRRRRRRR-NH2 [Peptide TP7-8R], the Cytotoxicity was “Yes”. For TFCKAFRRRRRRRR-NH2 [Peptide TF6-8R], the Cytotoxicity was “Yes” and the “cytotoxicity / activity” value was “quite comparable”. With TFCRRRRRRRR [Peptide TC3-8R] the Cytotoxicity was “Yes” and the “cytotoxicity / activity” value was “lower-level activities retained”.
